Experimental data taken from US20030176356A1, “Endothelin antagonists and endothelin-converting enzyme inhibitors for the treatment of glaucoma” (University of North Texas Health Science Center, priority 2001, published 2003).
“Also recorded” adds a separate entry of the source. No end group written: not given here.

Columns and labels:
[1] = tested on: human non-pigmented ciliary epithelial (HNPE) cells; test: Nitric oxide release from HNPE cells (nitrite, Griess colorimetric assay); assay type: cell-based; conditions: 100 nM ET-1, 24 hours; control 14.4±1.8 μM nitrite
Experimental: The effect of endothelin-1 (ET-1) and PD-142893, an ETA/B receptor antagonist, on nitric oxide (“NO”) release from human non-pigmented ciliary epithelial (HNPE) cells are illustrated in FIG. 6. The NO released into the culture media from HNPE cells grown in 24-well plates and treated with ET-1 (100 nM) for 24 hours was converted to nitrites. The total amount of nitrites was measured using the Griess colorimetric assay. HNPE cells were pre-treated with PD-142893 (1 μM) for 30 minutes and then 100 nM ET-1 was also added and incubated for 24 hours. The values in FIG. 6 represent the mean±SEM of a ratio between the nitrite produced under experimental conditions divided by the nitrite produced in control cells, which corresponded to 14.4±1.8 μM and controls were expressed as 100% (n=3). Statistical significance of the nitrite released from ET-1 (100 nM) treatment versus the control are denoted with an asterisk (“*”). Statistical significance of the nitrite released from PD-142893+ET-1 (100 nM) treatment versus that of ET-1 (100 nM) are denoted as a double asterisk (“**”) The statistical differenced were determined by one-way ANOVA and Student-Newman-Keuls multiple comparison test (p<0.05). Thus, addition of ET-1 increased the nitrite levels nearly 2-fold when compared to control cells or cells treated with PD-142893.

rat optic nerve = test: Anterograde axonal transport in rat optic nerve after intravitreal injection (35S-methionine pulse label); assay type: in vivo; conditions: for effect of ET-1 on anterograde axonal transport: intravitreal 2 nmol
Description: Newly synthesized proteins undergoing anterograde axonal transport in the optic nerve were pulse-labeled in either the presence or absence of endothelin as modified from previously published methods (van Biesen et al., 1995). Modifications to previously published methods were minimal and involved the replacement of a distilled water vehicle for resuspension of radiolabeled precursors with either HEPES buffered ET-1 or HEPES vehicle buffer alone. ^35S-Methionine (Easytag EXPRESS PROTEIN LABELING MIX, Dupont-NEN Life Sciences, Boston, Mass.) was lyophilized and resuspended in either vehicle alone (10 mM HEPES, pH 7.4, Sigma Chemical Co., St Louis, Mo.) or in vehicle containing 500 μM ET-1 (Bachem, Belmont, Calif.). Rats were anesthetized by Metofane inhalation, and 0.8 mCi (4 μl) of radiolabel in vehicle either plus or minus ET-1 (final dose 2 mmols), was injected into the vitreous of the left eye using a 30 gauge needle attached to a Hamilton syringe (microliter #710, 22s gauge, Hamilton Co., Reno, Nev.) by polyethylene tubing (PE-20, Clay Adams Brand, Becton Dickson and Co., Sparks, Md.) (van Biesen et al., 1995). In one experiment, ET-3 was substituted for ET-1, using the same methods (2 mmol dose, 28 hour ISI, N=7 for controls, N=7 for experimentals). […] One minute after injection, all retinas appeared normal in color. (Based upon these initial observations, further observations of the retinas were not performed). Information on the dose-related effect(s) of intravitreal ET-1 in this species (i.e. rat) were unavailable, and physiological/pathological concentrations of endothelin in the optic nerve head's microenvironment are generally unknown. Therefore, dose selection was made on the basis of a small pilot study, using these methods and measuring the total pulse-labeled protein axonally transported into the rat optic nerve. (An N of 3 rats in every group was used only for the pilot study, 4 hour ISI, data not shown). […] However, significant effects on axonal transport (4 hour ISI) were only seen in the pilot study for the 2 mmol dose. […] Possible effect(s) on non-assayed ocular tissues were not considered in dose selection, as data on these were unavailable for either acute or chronic intravitreal ET-1 administration, in rats.
This technique was employed to determine if endothelin-1 also affected the axonal transport in the optic nerve of rats, which is severely compromised in glaucoma. Harvest and preparation of pulse-labeled optic nerves in animals, wherein animals were anesthetized with metofane at specified times after injection and sacrificed by decapitation. Injection-sacrifice intervals were selected based upon the published characterizations of anterograde axonal transport in rat optic nerve for specific marker proteins associated with specific classes of axonally transported materials (Table 4) (Elluru et al., 1995; Garner and Lasek, 1981; Garner and Lasek, 1982; Jahn et al., 1985). Seven vehicle-treated animals and seven endothelin-treated animals were sacrificed at each of the specified times (4, 24, 28, 32, 36 hours and 4, 21 days). Optic nerves were removed, flash frozen with crushed dry ice, and sectioned frozen. Nerves were sectioned to aid complete homogenization, and to provide additional data for future studies. The frozen sections (2 mm in length) were numbered as segments 1-4 (from proximal to distal), and glass-on glass homogenized in 100 μlof BUST sample buffer (2% β-mercaptoethanol, 8M urea, 1% SDS, 0.1M Tris, 0.02% phenol red, pH 7.4). A 25% aliquot of each homogenized segment was counted in a liquid scintillation counter, and counts were corrected for decay, quench, and counting efficiency.

NOS2 = NOS2 mRNA expression in HNPE cells by RT-PCR; assay type: cell-based, human; conditions: 100 nM ET-1, 24 hours, qualitative, vs non-treated controls
Description: Utilizing the powerful technique of RT-PCR on mRNA transcripts of NOS2, the amplified products were separated on an agarose gel and compared with untreated control RT_PCR products. […] RT-PCR products of the β-actin housekeeping gene were also amplified and visualized on an agarose gel as a mRNA isolation control.

NOS-2 = NOS-2 mRNA expression in retina after intravitreal injection, RT-PCR; assay type: in vivo, Brown Norway rats; conditions: intravitreal 2 mmoles, 4 hours or 24 hours post-injection
Experimental: Elevated NOS-2 expression and peroxynitrite labeling are observed in glaucomatous retina and optic nerve head and are considered to be neurotoxic, which promote retinal ganglion cell death. ET-1 was injected in the left eye (OS) of rats while the right eye served as an contralateral control. Saline was also injected in some rats.

Substance: ET-1: active 21 amino acid residue endothelin peptide (Bachem) (CSCSSLMDKECVYFCHLDIIW; ends and bridges not checked; cysteine pairing not given here; UniProt P05305 53-73, looked up)
- increase of nitrite levels compared to control cells [1]: ~2 fold
- total pulse-labeled protein axonally transported into the rat optic nerve (pilot study) (rat optic nerve; 0.3, 0.4, and 2 mmol doses intravitreal, 4 hour ISI, significant only for the 2 mmol dose): trend of increasingly enhanced axonal transport
- effect of ET-1 on anterograde axonal transport (rat optic nerve; ISI 4 hr, fast component, MBO/small tubulovesicles): significant enhancement; also recorded: increased
- effect of ET-1 on anterograde axonal transport (rat optic nerve; ISI 24 hr, fast component, MBO/small tubulovesicles): significant enhancement; also recorded: increased
- effect of ET-1 on anterograde axonal transport (rat optic nerve; ISI 28 hr, fast component, MBO/mitochondria): significant reduction; also recorded: decreased
- effect of ET-1 on anterograde axonal transport (rat optic nerve; ISI 32 hr, fast component, MBO/mitochondria): significant reduction; also recorded: decreased
- effect of ET-1 on anterograde axonal transport (rat optic nerve; ISI 36 hr, fast component, MBO/mitochondria): significant reduction; also recorded: decreased
- effect of ET-1 on anterograde axonal transport (rat optic nerve; ISI 4 days, SCa, cytoplasmic matrix proteins): significant reduction; also recorded: decreased
- effect of ET-1 on anterograde axonal transport (rat optic nerve; ISI 21 days, SCb, cytoskeletal proteins): significant reduction; also recorded: decreased
- NOS2 mRNA levels (NOS2): elevated mRNA levels of NOS2
- mRNA expression of inducible nitric oxide synthase-2 (NOS-2) in the retina (NOS-2): causes the mRNA expression of inducible nitric oxide synthase-2 (NOS-2)
